EP2057188B1 (priority 2006, dated 2008)
Like-named read-outs stand apart in the source and are kept apart here. Ends that are not written are not given here.

Tests used:
[1] = IVGTT duration of action assay, single SC injection; assay type: in vivo, rat; details: compared with 0601GIP3794 (794); @ -120 min
Protocol: In the typical IVGTT assays the test sample was administered by IV infusion. The IV infusion of sample was initiated at t = -30min and continued through t = 90. IV glucose was given at t = 0. To determine a duration of action using the IVGTT assay, the sample was injected SC as a single injection at one time point indicated (e.g., t = -240, -120, -60 or -30) prior to administration of glucose. IV glucose was given at t = 0.

[2] = assay type: in vivo, NIH/Swiss mice; details: 80 nmol/Kg; AUC240
Protocol: Gavage (1.5g/kg) was given at t=0. Sample was taken at t=30 min.

[3] = assay type: in vivo, rats; design: AUC Change in Insulin Pre IVGTT / AUC Change in Insulin Post IVGTT: unit not given beside the values; details: for AUC Change in Insulin Post IVGTT / AUC Change in Insulin Pre IVGTT: rat, in vivo
[4] = cited from earlier work; for EC(50): inhibition of gastric emptying, subcutaneous; for inhibition of gastric emptying: at doses of 100µg
[5] = 100 pmol/kg/min infusion dose in rats

CC[C@H](C)[C@H](NC(=O)[C@H](CO)NC(=O)[C@H](Cc1ccc(O)cc1)NC(=O)[C@H](CC(=O)O)NC(=O)[C@H](CO)NC(=O)[C@@H](NC(=O)[C@H](Cc1ccccc1)NC(=O)[C@@H](NC(=O)CNC(=O)[C@H](CCC(=O)O)NC(=O)[C@@H](C)NC(=O)[C@@H](N)Cc1ccc(O)cc1)[C@@H](C)O)[C@@H](C)CC)C(=O)N[C@@H](C)C(=O)N[C@@H](CCSC)C(=O)N[C@@H](CC(=O)O)C(=O)N[C@@H](CCCCN)C(=O)N[C@H](C(=O)N[C@@H](Cc1c[nH]cn1)C(=O)N[C@@H](CCC(N)=O)C(=O)N[C@@H](CCC(N)=O)C(=O)N[C@@H](CC(=O)O)C(=O)N[C@@H](Cc1ccccc1)C(=O)N[C@H](C(=O)N[C@@H](CC(N)=O)C(=O)N[C@@H](Cc1c[nH]c2ccccc12)C(=O)N[C@@H](CC(C)C)C(=O)N[C@@H](CC(C)C)C(=O)N[C@@H](C)C(=O)N[C@@H](CCC(N)=O)C(=O)N[C@@H](CCCCN)C(=O)N1CCC[C@H]1C(=O)N[C@@H](CCCCN)C(=O)N[C@@H](CCC(N)=O)C(=O)N[C@H](C(=O)N[C@@H](CCCNC(=N)N)C(=O)N[C@@H](Cc1ccc(O)cc1)C(=O)N[C@@H](CO)C(N)=O)[C@@H](C)CC)C(C)C)[C@@H](C)CC [0601 GIP48 54]
Duration In The Rat IVGTT Assay [1]: < 794@ -120 min

CC[C@H](C)[C@H](NC(=O)[C@H](C)NC(=O)[C@H](CCCCN)NC(=O)[C@@H]1CCCN1C(=O)[C@H](CCCCN)NC(=O)[C@H](CCC(N)=O)NC(=O)[C@H](C)NC(=O)[C@H](CC(C)C)NC(=O)[C@H](CC(C)C)NC(=O)[C@H](Cc1c[nH]c2ccccc12)NC(=O)[C@H](CC(N)=O)NC(=O)[C@@H](NC(=O)[C@H](Cc1ccccc1)NC(=O)[C@H](CC(=O)O)NC(=O)[C@H](CCC(N)=O)NC(=O)[C@H](CCC(N)=O)NC(=O)[C@H](Cc1c[nH]cn1)NC(=O)[C@@H](NC(=O)[C@H](CCCCN)NC(=O)[C@H](CC(=O)O)NC(=O)[C@H](CCSC)NC(=O)[C@H](C)NC(=O)[C@@H](NC(=O)[C@H](CO)NC(=O)[C@H](Cc1ccc(O)cc1)NC(=O)[C@H](CC(=O)O)NC(=O)[C@H](CO)NC(=O)[C@@H](NC(=O)[C@H](Cc1ccccc1)NC(=O)[C@@H](NC(=O)CNC(=O)[C@H](CCC(=O)O)NC(=O)[C@@H](C)NC(=O)[C@@H](N)Cc1ccc(O)cc1)[C@@H](C)O)[C@@H](C)CC)[C@@H](C)CC)[C@@H](C)CC)C(C)C)C(=O)N[C@@H](CCCNC(=N)N)C(=O)N[C@@H](Cc1ccc(O)cc1)C(=O)N[C@@H](CO)C(N)=O [0601 GIP48 16]
Basal Glucose Lowering at 80 nmol/Kg [2]: -9%, AUC240 | Duration In The Rat IVGTT Assay [1]: <794@-120 min

[dAla2]GIP-(1-30)-[Octylglycine 34] Exendin-4 (31-39) [Compound 0601GIP4252]
Basal Glucose Lowering at 80 nmol/Kg [2]: -7%, AUC240 | AUC Change in Insulin Post IVGTT [3]: 1218.1+ -12.7 | AUC Change in Insulin Pre IVGTT [3]: 11.9+-11.7

[dAla2, Leu14, beta-Ala31, beta-Ala32] GIP-(1-32)-Exendin-4 (31-39) [Compound 0601GIP4179]
Basal Glucose Lowering at 80 nmol/Kg [2]: -17%, AUC240 | AUC Change in Insulin Post IVGTT [3]: 206.8+-30.1 | AUC Change in Insulin Pre IVGTT [3]: 52.4+-9.6

Secretin: peptide compared for inhibition of gastric emptying in conscious rats
EC(50) ([4]; conscious rats ~200g): 1.87 µg | EC(50) ([4]; conscious rats): 3.09 nmol/kg

Gastrin releasing peptide: peptide compared for inhibition of gastric emptying in conscious rats (VPLPAGGGTVLTKMYPRGNHWAVGHLM; ends and bridges not checked; UniProt P07492 24-50, looked up)
EC(50) ([4]; conscious rats ~200g): 28.5 µg | EC(50) ([4]; conscious rats): 49.9 nmol/kg

PACAP38: pituitary adenylate cyclase activating peptide (HSDGIFTDSYSRYRKQMAVKKYLAAVLGKRYKQRVKNK-NH2; ends and bridges not checked; UniProt P18509 132-169, looked up)
inhibition of gastric emptying [4]: weakly active or inactive

Rat CGRP: peptide compared for inhibition of gastric emptying in conscious rats (SCNTATCVTHRLAGLLSRSGGVVKDNFVPTNVGSEAF; ends and bridges not checked; cysteine pairing not given here; UniProt P01256 83-119, looked up)
EC(50) ([4]; conscious rats ~200g): 1.62 µg | EC(50) ([4]; conscious rats): 2.13 nmol/kg

^25,28,29Pro-h-amylin (KCNTATCATQRLANFLVHSSNNFGPILPPTNVGSNTY; chains of the INN, looked up) [Pramlintide]
EC(50) ([4]; conscious rats ~200g): 0.07 µg

adrenomedullin: peptide compared for inhibition of gastric emptying in conscious rats (YRQSMNNFQGLRSFGCRFGTCTVQKLAHQIYQFTDKDKDNVAPRSKISPQGY; ends and bridges not checked; cysteine pairing not given here; UniProt P35318 95-146, looked up)
inhibition of gastric emptying [4]: weakly active or inactive

octylglycine-GIP(1-30)-Exendin-4-(31-39) [Compound 0601GIP4178]
Basal Glucose Lowering at 80 nmol/Kg [2]: -13%, AUC240 | insulin levels prior to the glucose challenge [3, 5]: significant rise in insulin levels | insulinotropic response to an intravenous glucose challenge [3, 5]: diminished insulinotropic response | AUC Change in Insulin Post IVGTT [3]: 106.6+-23.8 | AUC Change in Insulin Pre IVGTT [3]: 18.5+-6.7

KCNTATCATQRLANFLVHSSNNFGAILSSTNVGSNTY [Human amylin]
EC(50) ([4]; conscious rats ~200g): 0.15 µg | EC(50) ([4]; conscious rats): 0.19 nmol/kg

CSNLSTCVLGKLSQELHKLQTYPRTNTGSGTP [Salmon calcitonin]
EC(50) ([4]; conscious rats ~200g): 0.19 µg | EC(50) ([4]; conscious rats): 0.28 nmol/kg

pancreatic polypeptide: peptide compared for inhibition of gastric emptying in conscious rats (APLEPVYPGDNATPEQMAQYAADLRRYINMLTRPRY; ends and bridges not checked; UniProt P01298 30-65, looked up)
inhibition of gastric emptying [4]: weakly active or inactive
